Source: patent US20160264593A1 (priority 2013, published 2016)
Where “and” joins values, the source holds several entries; their conditions need not be identical. Identical values can stand only once. Like-named read-outs stand apart in the source and are kept apart here.

What was measured:
[1] = test system: glioblastoma (U-87) cells; experiment: WST cell viability assay, U-87 MG; assay type: cell-based; conditions: for IC50: read-out: IC50 U-87 MG; for cytotoxicity against glioblastoma cells (statement): WST, U-87
[2] = test system: breast cancer (2LMP) cells; experiment: WST cell viability assay, 2LMP
Description: (§3) IC50 values were obtained for cytotoxicity against breast cancer (2LMP), glioblastoma (U-87) and lung cancer (A549) cells (See Table 5 and FIGS. 3-5).

lung cancer (A549) cells = experiment: WST cell viability assay, A549; assay type: cell-based; conditions: for IC50: WST-20131028, read-out: IC50 A549; for cytotoxicity against lung cancer cells (statement): WST
[3] = test system: breast cancer (2LMP) cells
Description: as §3

[4] = Pharmacokinetic study of 153 (and metabolite endothal) in SD rats, iv and po; plasma, liver, brain; assay type: in vivo
Description: The blood, liver and brain tissue samples were collected at predetermined times from rats. […] Compound were diluted shortly before use in 4% sodium bicarbonate for sterile injection (this is the standard pediatric solution of NaHCO3 with a pH of about 8.5).
Compound 153 was freshly prepared by diluting the drugs shortly before use in 4% sodium bicarbonate for sterile injection (this is the standard pediatric solution of NaHCO3 with a pH of about 8.5). The final concentrations of 153 solutions were 0.25 mg/mL. The 153 solutions were administered via iv or po route at dose volume of 5 ml/kg according to the latest body weight. Compound 157 was freshly prepared by diluting the drugs shortly before use in 4% sodium bicarbonate for sterile injection (this is the standard pediatric solution of NaHCO3 with a pH of about 8.5). The final concentrations of […] solutions were 0.3 mg/mL. The 157 solutions were administered via iv or po route at dose volume of 5 ml/kg according to the latest body weight.
Twelve (12) female SD rats per group were dosed by iv with 153 or 157. The rats were fasted overnight prior to dosing, with free access to water. Foods were withheld for 2 hours post-dose. Blood, liver and brain tissue samples in two animals each group were collected at each time point, within 10% of the scheduled time for each time point. Two extra animals were used for analytic method development.
Blood (>0.3 mL) were collected via aorta abdominalis in anaesthetic animals into tubes containing heparin at 15 min, 1, 2, 6, 10 and 24 hours after iv administration. Liver and brain tissues were collected immediately after animal death. The liver and brain tissues were excised and rinsed with cold saline to avoid blood residual. Upon collection, each sample was placed on ice and the blood samples were subsequently centrifuged (4° C., 11000 rpm, 5 min) to separate plasma. The obtained plasma, liver and brain tissue samples were stored at −70° C. until LC-MS/MS analysis.
Two (2) female SD rats per group were dosed by po with 153 or 157. The rats were fasted overnight prior to dosing, with free access to water. Foods were withheld for 2 hours post-dose. Blood samples (>0.3 mL) were collected via aorta abdominalis in anaesthetic animals into tubes containing heparin at 30 min, 1, 2, 6, 10 and 24 hours after po administration.
To each sample, 20 μL IS-D (for blank samples, 20 μL acetonitrile:water (1:1) was added) and 300 μl acetonitrile was added. The sample mixture was vortexed for approximately 3 min. After centrifugation at 10000 rpm for 5 min at 4° C., 100 μL of the upper layer was transferred to a new tube and added 200 μL 0.4% formic acid in water (pH 6.0). The mixture was vortexed for approximately 3 min before injected onto the LC/MS/MS system for analysis.
On the day of the assay, the frozen liver and brain samples were thawed unassisted at room temperature. An about 200 mg weighed sample of each thawed tissue was placed into a plastic tube with water (0.6 mL) to facilitate homogenization. Tissue processing was conducted using a homogenizer for approximately 1 min, 200 μl homogenate was transferred into a fresh Eppendorf tube. To each tube, 50 μL IS-D was added and mixed. Then 600 μl acetonitrile was added and the sample mixture was vortexed for approximately 3 min. After centrifugation at 10000 rpm for 5 min at 4° C., 400 μL of the upper layer was transferred to a new tube and evaporate the supernatant to dryness at 35° C. Reconstitute the residue with 200 μL of 0.4% formic acid in water (pH6.0), and vortex for 3 min, submit for LC-MS/MS analysis.
Frozen unknown plasma samples were completely thawed at room temperature and vortexed thoroughly. With a pipette, 50 μL of plasma was transferred into a 2.0 mL Eppendorf tube. 50 μL of 0.1N HCl and 800 μL ethyl acetate were added into each sample. The sample mixture was vortexed for approximately 3 min.

PP2A [5] = experiment: PP2A immunoprecipitation phosphatase assay on mouse brain lysate, OA added to the reaction (positive control); assay type: biochemical, Balb/c mice
Description: (§1) Coomassie (Bradford) Protein Assay Kit (Pierce); PP2A Immunoprecipitation Phosphatase Assay Kit (Millipore); Lysate preparation for low endogenous phosphate: 20 mM imidazole-HCl, 2 mM EDTA, 2 mM EGTA, 1 mM PMSF, 1 mM benzamidine, 10 ug/ml each of aprotinin, leupeptin, antipain, soybean trypsin inhibitor; Normal Mouse IgG (Millipore); Okadaic acid (OA) (Tocris); DMSO (Sigma).
(§2) 1. Mouse brain or liver was homogenized using lysis buffer (25 g/L), centrifuged at 12000 g for 10 minutes at […], and the supernatants were collected. 2. The protein was quantitated, and 240 μg of mouse brain or liver lysate was taken to assay phosphatase activity. 3. Added 4 μg of Anti-PP2A or 4 μg Normal mouse IgG as an IP control. 4. Added 30 μl Protein A agarose slurry. 5. Brought volume to 500 μl with pNPP Ser/Thr Assay Buffer. 6. Incubated for 2 h at 4° C. with constant rocking. 7. Washed beads 3 times with 700 μl TBS, followed by one wash with 500 μl Ser/Thr Assay Buffer. 8. Added 20 μl of Ser/Thr Assay Buffer. (In order to determine the linear range of PP2A amount for enzymatic reaction, different amounts of precipitated PP2A were used for subsequent phosphatase assay.) 9. Added 60 μl of diluted phosphopeptide (final concentration would be 750 μM) 10. Added OA (5 μM & 5 nM) or DMSO to the reaction system. 11. Incubated for 10 minutes at 30° C. in a shaking incubator. 12. Centrifuged briefly and transferred 25 μl into each well of the microliter plate to be used.
13. Added 100 μl of Malachite Green Phosphate Detection Solution AB.
14. Let color develop for 10-15 minutes at RT. 15. Measured absorbance at a wavelength between […] in a microliter plate reader.

PP2A [6] = experiment: PP2A immunoprecipitation phosphatase assay on mouse liver lysate, OA added to the reaction (positive control); assay type: biochemical, Balb/c mice
Description: as §1
as §2, with “Incubated for 10 minutes at 30° C. in a shaking incubator. 12. Centrifuged briefly and transferred 25 μl into each well of the microliter plate to be used.” left out
14. […] Measured absorbance at a wavelength between […] in a microliter plate reader.

[7] = iv daily for 5 days, phase I; cited from earlier work
[8] = read-out: IC50 2LMP, WST-20131015 (first value of the cell)
[9] = read-out: IC50 2LMP, WST-20131025 (second value of the cell)
[10] = End. in plasma after 153 1.25 mg/kg IV, Mean
[11] = End. in plasma after 153 1.25 mg/kg IV, rat 1
[12] = End. in plasma after 153 1.25 mg/kg IV, rat 2
[13] = End. in plasma after 153 1.25 mg/kg PO, Mean
[14] = End. in plasma after 153 1.25 mg/kg PO, rat 1
[15] = End. in plasma after 153 1.25 mg/kg PO, rat 2
[16] = Endothal in liver after single iv 153 1.25 mg/kg, Mean
[17] = Endothal in liver after single iv 153 1.25 mg/kg, rat 1
[18] = Endothal in liver after single iv 153 1.25 mg/kg, rat 2
[19] = 5 nM OA in the reaction, brain sample M1-1
[20] = 5 μM OA in the reaction, brain sample M1-1

For CCCCC/C=C/C/C=C/CCCCCCCCOC(=O)C1C2CCC(O2)C1C(=O)N1CCN(C)CC1 (stereo not shown) [Compound 158, 3-(4-Methylpiperazine-1-carbonyl)-7-oxa-bicyclo [2,2,1] heptane-2-carboxylic acid linoleyl ester], the IC50 ([1]; Homo sapiens, U-87 MG, WST-20131017 (first value of the cell)) was 15.2 µM, the IC50 ([1]; Homo sapiens, U-87 MG, WST-20131024 (second value of the cell)) was 8.28 µM and the “cytotoxicity against glioblastoma cells (statement)” value [1] was “cytotoxic”. It also gave an IC50 [2, 8] of 9.19 µM, an IC50 [2, 9] of 12.8 µM and an IC50 (lung cancer (A549) cells; Homo sapiens, A549) of 8.74 µM. The “cytotoxicity against lung cancer cells (statement)” value (lung cancer (A549) cells; A549) was “cytotoxic”, the “cytotoxicity against breast cancer cells (statement)” value [3] was “cytotoxic” and the “cytotoxicity relative to 100 (statement)” value [3] was “increased cytotoxicity relative to 100”.
In the case of CCCCCCCCCCCCCCCCCOC(=O)C1C2CCC(O2)C1C(=O)N1CCN(C)CC1 (stereo not shown) [Compound 159], the “cytotoxicity against glioblastoma cells (statement)” value [1] is reported as “cytotoxic”, the IC50 ([1]; WST-20131017 (first value of the cell)) is reported as 5.41 µM and the IC50 ([1]; WST-20131024 (second value of the cell)) is reported as 5.07 µM. For the same compound, the “cytotoxicity against breast cancer cells (statement)” value ([2]; WST, 2LMP) was “cytotoxic”, the “cytotoxicity relative to 100 (statement)” value ([2]; cell line not specified (2LMP, U-87, A549 tested)) was “increased cytotoxicity relative to 100” and the IC50 [2, 8] was 4.66 µM. The IC50 [2, 9] was 4.62 µM, the “cytotoxicity against lung cancer cells (statement)” value (lung cancer (A549) cells; A549) was “cytotoxic” and the IC50 (lung cancer (A549) cells) was 4.71 µM.
For O=C(O)C1C2CCC(O2)C1C(=O)O (stereo not shown) [End.], the AUC [4, 10] was 378 ng·h/mL, the “AUC0-∞” value [4, 10] was 600 ng·h/mL and the Cmax [4, 10] was 70.5 ng/mL. For the same compound, the “MRT (0-t)” value [4, 10] was 3.34 h, the T1/2 [4, 10] was 5.2 h and the Tmax [4, 10] was 1.13 h. For the same compound, the AUC [4, 11] was 482 ng·h/mL, the “AUC0-∞” value [4, 11] was 618 ng·h/mL and the Cmax [4, 11] was 77.1 ng/mL. The “MRT (0-t)” value [4, 11] was 3.93 h, the T1/2 [4, 11] was 4.37 h and the Tmax [4, 11] was 2 h. The AUC [4, 12] was 274 ng·h/mL, the “AUC0-∞” value [4, 12] was 581 ng·h/mL and the Cmax [4, 12] was 63.8 ng/mL. For the same compound, the “MRT (0-t)” value [4, 12] was 2.74 h, the T1/2 [4, 12] was 6.02 h and the Tmax [4, 12] was 0.25 h. For the same compound, the AUC [4, 13] was 179 ng·h/mL, the “AUC0-∞” value [4, 13] was 364 ng·h/mL and the Cmax [4, 13] was 46.9 ng/mL. For the same compound, the “MRT (0-t)” value [4, 13] was 2.76 h, the T1/2 [4, 13] was 5.49 h and the Tmax [4, 13] was 0.75 h. The AUC [4, 14] was 189 ng·h/mL, the “AUC0-∞” value [4, 14] was 395 ng·h/mL and the Cmax [4, 14] was 53.6 ng/mL. The “MRT (0-t)” value [4, 14] was 2.8 h, the T1/2 [4, 14] was 5.53 h and the Tmax [4, 14] was 1 h. For the same compound, the AUC [4, 15] was 169 ng·h/mL, the “AUC0-∞” value [4, 15] was 333 ng·h/mL and the Cmax [4, 15] was 40.2 ng/mL. The “MRT (0-t)” value [4, 15] was 2.72 h, the T1/2 [4, 15] was 5.45 h and the Tmax [4, 15] was 0.5 h. The “MRT (0-t)” value [4, 16] was 3.24 h, the T1/2 [4, 16] was 2.79 h and the Tmax [4, 16] was 2 h. The T1/2 [4, 17] was 3 h, the Tmax [4, 17] was 2 h and the “MRT (0-t)” value [4, 18] was 3.43 h. For the same compound, the T1/2 [4, 18] was 2.57 h and the Tmax [4, 18] was 2 h.
In the case of C=C1[C@@H](O)[C@@H]2O[C@]3(CC[C@H](/C=C/[C@@H](C)[C@@H]4CC(C)=C[C@@]5(O[C@H](C[C@@](C)(O)C(=O)O)CC[C@H]5O)O4)O3)CC[C@H]2O[C@@H]1[C@@H](O)C[C@H](C)[C@H]1O[C@@]2(CCCCO2)CC[C@H]1C [OA, Okadaic acid], the “Average Conc.” value (PP2A [5]; [19]) is reported as 270.60, the “Average Relative Activity (vehicle = 100)” value (PP2A [5]; [19]) is reported as 12.46 and the “Conc. (phosphate, single reading)” value (PP2A [5]; [19]) is reported as 282.72 and 271.21. The “Mean Conc.” value (PP2A [5]; [19]) was 276.96, the “Mean Conc. less IgG blank” value (PP2A [5]; [19]) was 270.60 and the “Relative Conc.” value (PP2A [5]; [19]) was 0.12. The “Relative PP2A Activity (vehicle = 100)” value (PP2A [5]; [19]) was 12.46, the “Average Conc.” value (PP2A [5]; [20]) was −5.54 and the “Average Relative Activity (vehicle = 100)” value (PP2A [5]; [20]) was −0.38. For the same compound, the “Mean Conc.” value (PP2A [5]; [20]) was 0.82, the “Mean Conc. less IgG blank” value (PP2A [5]; [20]) was −5.54 and the “Relative Conc.” value (PP2A [5]; [20]) was 0.00. The “Relative PP2A Activity (vehicle = 100)” value (PP2A [5]; [20]) was −0.38, the “activity of PP2A in brains, positive control (statement)” value (PP2A [5]; OA added to the reaction) was “significantly inhibited” and the “activity of PP2A in livers, positive control (statement)” value (PP2A [6]) was “significantly inhibited”.
For C[C@@](O)(/C=C/[C@H]1CC=CC(=O)O1)[C@@H](C[C@@H](O)\C=C/C=C\C=C\CO)OP(=O)(O)O [fostriecin], the dose limiting toxicity [7] is given as “not achieved” and the major toxicities [7] is given as “reversible non-cumulative increases in serum creatinine and hepatic enzymes”.
